Assay results: BindingDB's records for doi:10.1016/j.bmc.2016.05.005 (University of Catania, 2016)

Columns and labels:
[1] = Antagonist activity at DOR in CD1 mouse vas deferens assessed as pEC50 for DPDPE-induced inhibition of EFS-evoked contractions at 1 uM incubated for 60 mins
[2] = Agonist activity at MOR in Dunkin-Hartley guinea pig ileum assessed as inhibition of EFS-induced contractions incubated for 60 mins

| Compound | EC50 [1] | EC50 [2] |
| --- | --- | --- |
| C[C@H]1[C@H]2Cc3ccc(O)cc3[C@]1(C)CCN2CCC(=O)Nc1ccccc1 | 126 µM |  |
| C[C@H]1[C@H]2Cc3ccc(O)cc3[C@]1(C)CCN2CCC(=O)Nc1cccc2ccccc12 | 7.94 µM | 50100 µM |
